Laboratory results: ChEMBL document CHEMBL5465560, “Selectivity Literature for EUbOPEN Chemogenomic Library” (2024)
One block for each molecule: values may come before it.

Key:
[1] = target: T1, Tyrosine-protein kinase Tec (Homo sapiens) (UniProt P42680); assay: Selectivity interaction (LanthaScreen Eu Kinase Binding Assay) EUB0001632a TEC; conditions: at 10 µM
T1 sequence (whole entry): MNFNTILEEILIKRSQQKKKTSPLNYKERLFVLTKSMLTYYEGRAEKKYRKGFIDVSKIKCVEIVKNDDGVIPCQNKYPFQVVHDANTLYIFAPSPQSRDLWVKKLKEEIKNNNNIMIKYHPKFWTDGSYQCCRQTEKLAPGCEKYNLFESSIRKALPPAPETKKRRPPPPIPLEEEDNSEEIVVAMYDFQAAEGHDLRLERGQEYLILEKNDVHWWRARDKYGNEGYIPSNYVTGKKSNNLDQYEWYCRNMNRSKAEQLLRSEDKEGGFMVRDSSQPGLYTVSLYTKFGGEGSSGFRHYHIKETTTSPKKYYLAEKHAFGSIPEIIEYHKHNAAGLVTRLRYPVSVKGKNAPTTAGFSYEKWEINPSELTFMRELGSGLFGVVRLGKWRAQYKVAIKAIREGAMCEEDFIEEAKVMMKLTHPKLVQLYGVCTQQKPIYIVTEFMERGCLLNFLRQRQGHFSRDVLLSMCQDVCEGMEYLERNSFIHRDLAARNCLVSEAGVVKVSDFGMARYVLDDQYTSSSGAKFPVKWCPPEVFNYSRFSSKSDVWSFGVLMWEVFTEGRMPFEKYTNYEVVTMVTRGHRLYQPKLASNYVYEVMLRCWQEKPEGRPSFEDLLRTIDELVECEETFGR

[2] = target: Epidermal growth factor receptor (Homo sapiens, UniProt P00533); assay: (§1) Selectivity interaction (SelectScreen profiling (Invitrogen)) EUB0000607a EGFR; conditions: at 2 µM
[3] = system: Epidermal growth factor receptor (Homo sapiens), P00533 [L861Q]; assay: as §1; conditions: at 2 µM
[4] = system: Epidermal growth factor receptor (Homo sapiens), P00533 [L858R]; assay: as §1; conditions: at 2 µM
[5] = system: Epidermal growth factor receptor (Homo sapiens), P00533 [T790M]; assay: as §1; conditions: at 2 µM
[6] = target: T2, Tyrosine-protein kinase ITK/TSK (Homo sapiens) (UniProt Q08881); assay: Selectivity interaction (Upstate Kinase Profiler service (Millipore)) EUB0000056c ITK; conditions: at 1 µM
T2 sequence (whole entry): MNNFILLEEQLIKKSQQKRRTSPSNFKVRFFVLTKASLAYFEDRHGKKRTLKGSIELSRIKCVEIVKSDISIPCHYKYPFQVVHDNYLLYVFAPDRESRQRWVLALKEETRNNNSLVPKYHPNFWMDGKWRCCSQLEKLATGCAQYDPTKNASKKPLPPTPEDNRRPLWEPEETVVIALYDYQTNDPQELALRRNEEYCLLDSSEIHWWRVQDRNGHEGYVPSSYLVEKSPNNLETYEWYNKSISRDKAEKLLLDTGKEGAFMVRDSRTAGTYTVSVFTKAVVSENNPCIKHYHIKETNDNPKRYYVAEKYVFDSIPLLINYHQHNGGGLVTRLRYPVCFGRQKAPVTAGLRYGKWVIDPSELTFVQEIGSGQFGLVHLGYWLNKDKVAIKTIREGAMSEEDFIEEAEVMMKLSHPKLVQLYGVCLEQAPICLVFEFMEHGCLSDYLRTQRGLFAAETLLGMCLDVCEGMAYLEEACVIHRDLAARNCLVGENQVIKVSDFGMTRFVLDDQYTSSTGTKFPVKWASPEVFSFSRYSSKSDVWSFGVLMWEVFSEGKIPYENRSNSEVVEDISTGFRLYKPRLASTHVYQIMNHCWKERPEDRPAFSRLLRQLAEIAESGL

[7] = target: T3, Serine/threonine-protein kinase BRSK2 (Homo sapiens) (UniProt Q8IWQ3); assay: Selectivity interaction (ProQinase) EUB0000171b BRSK2
T3 sequence (whole entry): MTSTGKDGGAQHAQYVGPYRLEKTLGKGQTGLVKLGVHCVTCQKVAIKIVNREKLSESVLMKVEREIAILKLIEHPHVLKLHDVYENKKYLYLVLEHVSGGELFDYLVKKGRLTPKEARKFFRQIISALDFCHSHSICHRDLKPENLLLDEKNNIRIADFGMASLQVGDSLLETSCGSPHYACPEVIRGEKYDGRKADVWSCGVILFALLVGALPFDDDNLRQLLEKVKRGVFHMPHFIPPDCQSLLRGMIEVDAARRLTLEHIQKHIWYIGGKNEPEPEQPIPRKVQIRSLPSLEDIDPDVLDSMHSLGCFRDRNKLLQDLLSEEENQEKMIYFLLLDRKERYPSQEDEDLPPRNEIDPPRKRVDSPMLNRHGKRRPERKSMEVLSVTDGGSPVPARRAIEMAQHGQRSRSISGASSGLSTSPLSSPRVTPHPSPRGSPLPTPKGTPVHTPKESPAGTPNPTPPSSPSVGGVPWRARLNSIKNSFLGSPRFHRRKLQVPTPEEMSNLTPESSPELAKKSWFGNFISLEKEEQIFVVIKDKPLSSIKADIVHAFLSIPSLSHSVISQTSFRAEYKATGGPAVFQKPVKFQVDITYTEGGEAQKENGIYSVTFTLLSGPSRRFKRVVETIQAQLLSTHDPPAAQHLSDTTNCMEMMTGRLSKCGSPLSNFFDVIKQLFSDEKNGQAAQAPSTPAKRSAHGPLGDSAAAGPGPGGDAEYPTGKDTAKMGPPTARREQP

[8] = target: Tyrosine-protein kinase Lyn (Homo sapiens, UniProt P07948); assay: Selectivity interaction (KinomeScan (DiscoverX)) EUB0000092b LYN; conditions: at 10 µM
[9] = target: Ribosomal protein S6 kinase alpha-2 (Homo sapiens) (UniProt Q15349); assay: Selectivity interaction (KinomeScan (DiscoverX)) EUB0000618a RPS6KA2; conditions: at 10 µM
Ribosomal protein S6 kinase alpha-2 (Homo sapiens), sequence (Q15349 whole entry): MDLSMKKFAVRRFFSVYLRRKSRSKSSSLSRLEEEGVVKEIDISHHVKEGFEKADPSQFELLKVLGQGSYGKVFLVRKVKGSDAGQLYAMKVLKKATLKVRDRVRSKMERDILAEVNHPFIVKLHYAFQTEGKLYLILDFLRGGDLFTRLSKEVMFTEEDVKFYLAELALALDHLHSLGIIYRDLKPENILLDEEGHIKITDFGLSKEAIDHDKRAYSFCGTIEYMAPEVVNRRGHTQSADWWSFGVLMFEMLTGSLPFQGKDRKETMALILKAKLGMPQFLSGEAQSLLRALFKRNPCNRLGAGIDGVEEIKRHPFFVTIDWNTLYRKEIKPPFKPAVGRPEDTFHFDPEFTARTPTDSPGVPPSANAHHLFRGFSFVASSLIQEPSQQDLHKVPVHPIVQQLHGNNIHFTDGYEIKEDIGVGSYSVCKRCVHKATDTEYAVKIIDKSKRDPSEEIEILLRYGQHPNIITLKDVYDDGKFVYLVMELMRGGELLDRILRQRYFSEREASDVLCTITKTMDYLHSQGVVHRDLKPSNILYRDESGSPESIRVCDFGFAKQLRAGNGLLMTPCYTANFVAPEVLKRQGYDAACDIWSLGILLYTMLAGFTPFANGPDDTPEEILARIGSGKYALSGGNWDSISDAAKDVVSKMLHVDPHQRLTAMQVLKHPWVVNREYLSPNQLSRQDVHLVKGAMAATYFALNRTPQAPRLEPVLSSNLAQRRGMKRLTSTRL

Tyrosine-protein kinase Lyn, sequence (P07948 2-512 limits assumed): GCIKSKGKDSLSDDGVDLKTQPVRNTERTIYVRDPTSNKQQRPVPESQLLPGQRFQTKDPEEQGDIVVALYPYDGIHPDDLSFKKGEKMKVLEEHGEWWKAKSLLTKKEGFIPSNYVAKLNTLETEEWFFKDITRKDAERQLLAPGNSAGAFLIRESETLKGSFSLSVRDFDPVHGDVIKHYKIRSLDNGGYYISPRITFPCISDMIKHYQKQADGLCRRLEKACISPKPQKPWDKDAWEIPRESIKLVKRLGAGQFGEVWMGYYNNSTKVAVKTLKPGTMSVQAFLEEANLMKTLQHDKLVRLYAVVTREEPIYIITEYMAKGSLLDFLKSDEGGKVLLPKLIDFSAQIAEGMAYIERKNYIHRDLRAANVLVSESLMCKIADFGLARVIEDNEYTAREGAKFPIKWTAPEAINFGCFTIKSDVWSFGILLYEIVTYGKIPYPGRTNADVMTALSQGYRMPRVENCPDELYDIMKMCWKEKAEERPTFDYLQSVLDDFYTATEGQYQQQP
Epidermal growth factor receptor (Homo sapiens), P00533 [L858R], sequence (P00533 whole entry L858R): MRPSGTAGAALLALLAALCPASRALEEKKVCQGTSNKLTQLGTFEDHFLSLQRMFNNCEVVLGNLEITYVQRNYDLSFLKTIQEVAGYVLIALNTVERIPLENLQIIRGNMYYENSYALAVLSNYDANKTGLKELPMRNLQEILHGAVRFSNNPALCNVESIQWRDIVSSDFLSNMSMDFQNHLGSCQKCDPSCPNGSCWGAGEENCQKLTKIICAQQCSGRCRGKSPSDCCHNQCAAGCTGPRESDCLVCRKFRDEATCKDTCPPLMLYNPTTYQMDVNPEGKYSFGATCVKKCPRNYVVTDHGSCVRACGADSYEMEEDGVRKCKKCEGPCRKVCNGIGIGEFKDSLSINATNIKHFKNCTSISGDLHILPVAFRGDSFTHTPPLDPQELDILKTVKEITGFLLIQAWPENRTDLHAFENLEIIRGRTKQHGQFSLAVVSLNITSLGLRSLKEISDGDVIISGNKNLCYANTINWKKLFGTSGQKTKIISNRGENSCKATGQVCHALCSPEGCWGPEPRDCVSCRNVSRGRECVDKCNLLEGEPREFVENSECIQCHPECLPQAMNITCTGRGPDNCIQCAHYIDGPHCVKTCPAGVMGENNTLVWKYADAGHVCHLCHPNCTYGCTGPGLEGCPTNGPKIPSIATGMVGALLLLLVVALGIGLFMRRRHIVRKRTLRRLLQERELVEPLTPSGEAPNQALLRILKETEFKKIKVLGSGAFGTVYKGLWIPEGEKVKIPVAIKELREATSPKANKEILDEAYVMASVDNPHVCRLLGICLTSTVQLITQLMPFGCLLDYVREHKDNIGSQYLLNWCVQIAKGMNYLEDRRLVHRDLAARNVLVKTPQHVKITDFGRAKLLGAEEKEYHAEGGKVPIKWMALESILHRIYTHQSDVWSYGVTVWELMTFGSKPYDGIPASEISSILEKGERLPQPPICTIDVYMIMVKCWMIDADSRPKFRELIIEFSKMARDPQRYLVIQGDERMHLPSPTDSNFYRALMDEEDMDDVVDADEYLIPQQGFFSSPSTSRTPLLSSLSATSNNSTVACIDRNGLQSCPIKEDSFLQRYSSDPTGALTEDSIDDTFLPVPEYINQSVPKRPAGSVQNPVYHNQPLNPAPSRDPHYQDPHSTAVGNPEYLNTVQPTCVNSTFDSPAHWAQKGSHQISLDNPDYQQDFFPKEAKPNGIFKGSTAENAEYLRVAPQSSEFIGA
Epidermal growth factor receptor (Homo sapiens), P00533 [T790M], sequence (P00533 whole entry T790M): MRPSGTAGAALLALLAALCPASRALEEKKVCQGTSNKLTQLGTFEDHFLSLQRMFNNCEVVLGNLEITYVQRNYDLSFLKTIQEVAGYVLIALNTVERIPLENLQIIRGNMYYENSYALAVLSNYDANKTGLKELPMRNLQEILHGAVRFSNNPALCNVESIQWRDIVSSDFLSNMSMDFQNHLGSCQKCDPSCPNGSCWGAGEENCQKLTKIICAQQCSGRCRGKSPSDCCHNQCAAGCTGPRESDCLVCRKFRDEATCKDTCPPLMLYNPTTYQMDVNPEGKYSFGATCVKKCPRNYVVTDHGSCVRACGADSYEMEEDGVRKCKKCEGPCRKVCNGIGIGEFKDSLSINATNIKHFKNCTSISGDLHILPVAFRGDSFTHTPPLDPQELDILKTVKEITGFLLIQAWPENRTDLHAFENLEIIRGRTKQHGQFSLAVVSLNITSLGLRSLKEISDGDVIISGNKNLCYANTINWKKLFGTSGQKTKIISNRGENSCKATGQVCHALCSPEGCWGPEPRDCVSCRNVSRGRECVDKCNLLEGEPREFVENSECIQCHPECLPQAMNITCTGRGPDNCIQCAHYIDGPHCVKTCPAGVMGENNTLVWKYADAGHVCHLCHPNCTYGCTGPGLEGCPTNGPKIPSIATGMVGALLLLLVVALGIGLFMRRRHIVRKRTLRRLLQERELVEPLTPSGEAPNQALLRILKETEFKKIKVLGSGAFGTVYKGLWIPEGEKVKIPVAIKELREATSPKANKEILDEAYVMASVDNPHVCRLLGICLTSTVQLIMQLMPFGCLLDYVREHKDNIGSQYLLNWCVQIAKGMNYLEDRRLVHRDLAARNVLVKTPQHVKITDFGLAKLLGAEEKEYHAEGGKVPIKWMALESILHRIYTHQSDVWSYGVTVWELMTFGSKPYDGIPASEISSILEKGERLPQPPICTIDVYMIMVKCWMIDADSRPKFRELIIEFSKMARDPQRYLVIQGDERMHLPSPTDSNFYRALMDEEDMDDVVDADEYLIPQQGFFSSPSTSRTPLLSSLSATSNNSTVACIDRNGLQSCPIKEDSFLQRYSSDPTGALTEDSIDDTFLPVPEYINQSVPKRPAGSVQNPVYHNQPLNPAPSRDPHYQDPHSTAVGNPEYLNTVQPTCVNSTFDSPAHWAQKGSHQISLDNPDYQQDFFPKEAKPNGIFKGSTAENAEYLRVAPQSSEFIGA
Epidermal growth factor receptor (Homo sapiens), P00533 [L861Q], sequence (P00533 whole entry L861Q): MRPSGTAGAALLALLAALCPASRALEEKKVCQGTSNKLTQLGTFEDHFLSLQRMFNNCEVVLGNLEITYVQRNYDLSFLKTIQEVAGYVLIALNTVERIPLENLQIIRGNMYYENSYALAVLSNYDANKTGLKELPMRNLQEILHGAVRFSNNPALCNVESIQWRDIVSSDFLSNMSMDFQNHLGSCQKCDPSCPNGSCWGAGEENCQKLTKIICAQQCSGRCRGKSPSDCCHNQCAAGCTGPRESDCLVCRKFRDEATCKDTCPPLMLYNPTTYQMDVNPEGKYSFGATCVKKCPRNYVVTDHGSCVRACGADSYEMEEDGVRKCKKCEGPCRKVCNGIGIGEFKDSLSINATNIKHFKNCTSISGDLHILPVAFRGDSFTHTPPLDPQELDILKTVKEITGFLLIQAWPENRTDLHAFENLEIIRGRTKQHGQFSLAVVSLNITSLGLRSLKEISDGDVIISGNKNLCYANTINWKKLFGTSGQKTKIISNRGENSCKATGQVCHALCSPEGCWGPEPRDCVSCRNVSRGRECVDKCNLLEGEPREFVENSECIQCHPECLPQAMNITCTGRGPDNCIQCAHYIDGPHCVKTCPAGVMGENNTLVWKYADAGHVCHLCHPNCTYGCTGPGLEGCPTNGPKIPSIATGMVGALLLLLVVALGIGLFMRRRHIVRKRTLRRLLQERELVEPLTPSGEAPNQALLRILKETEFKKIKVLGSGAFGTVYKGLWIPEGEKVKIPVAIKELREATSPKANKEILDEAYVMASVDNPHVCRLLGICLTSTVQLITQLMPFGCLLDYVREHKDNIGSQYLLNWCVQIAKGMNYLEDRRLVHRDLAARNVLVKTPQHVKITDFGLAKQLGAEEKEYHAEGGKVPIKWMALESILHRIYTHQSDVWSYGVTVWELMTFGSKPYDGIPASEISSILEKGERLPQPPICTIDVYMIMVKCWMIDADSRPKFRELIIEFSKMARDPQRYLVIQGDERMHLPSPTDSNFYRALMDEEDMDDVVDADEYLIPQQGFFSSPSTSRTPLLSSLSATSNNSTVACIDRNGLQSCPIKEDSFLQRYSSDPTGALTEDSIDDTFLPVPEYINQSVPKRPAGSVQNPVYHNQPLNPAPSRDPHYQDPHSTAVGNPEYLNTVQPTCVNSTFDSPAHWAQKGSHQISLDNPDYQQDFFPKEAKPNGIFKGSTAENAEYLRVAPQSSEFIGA

Compound: CNC(=O)Nc1ccc(-c2nc(N3CC4CCC(C3)O4)c3cnn(C4CCC5(CC4)OCCO5)c3n2)cc1
% of inhibition [2]: 1% | % of inhibition [3]: -1% | % of inhibition [4]: 3% | % of inhibition [5]: 2%

Compound: CCC(=O)N1CCN(c2ccc(-n3c(=O)ccc4cnc5ccc(-c6cnc7ccccc7c6)cc5c43)cc2C(F)(F)F)CC1
% of control [8]: 79%

Compound: O[C@H]1CC[C@H](Nc2ncc3nc(Nc4c(F)cc(F)cc4F)n([C@H]4CCOC4)c3n2)CC1
% of control [9]: 78%

Second part, the molecule after the results:

% of inhibition [1]: -15.6%
Compound: Cn1cc(-n2cnc3c(NCc4nc5cc(Cl)c(Cl)cc5[nH]4)nc(N4CCOCC4)nc32)cn1

% of inhibition [6]: -1%
Compound: Cc1ccc(-c2ccc3c(ccc4sc5c(c43)NC[C@@H](C)NC5=O)n2)cn1

% of control ([7]; at 1 µM): 103% | % of control ([7]; at 5 µM): 85%
Compound: C=CC(=O)Nc1cccc(C(=O)Nc2ccc(Nc3cc(-c4[nH]c(SC)nc4C)ccn3)cc2)c1
